Results on 74 compounds are retold here after patent publication US20090270371A1, “QUINOLINE DERIVATIVES USEFUL IN THE TREATMENT OF MGLUR5 RECEPTOR-MEDIATED DISORDERS” (priority 2005, published 2009).

This assay deals with T1, rat mGluR5 receptors (Rattus norvegicus, UniProt P31424).
T1 construct: rat cerebro-cortical membrane preparation was used; from tissue; host or cells: rat cerebral cortex membranes
T1 sequence (P31424 21-1203): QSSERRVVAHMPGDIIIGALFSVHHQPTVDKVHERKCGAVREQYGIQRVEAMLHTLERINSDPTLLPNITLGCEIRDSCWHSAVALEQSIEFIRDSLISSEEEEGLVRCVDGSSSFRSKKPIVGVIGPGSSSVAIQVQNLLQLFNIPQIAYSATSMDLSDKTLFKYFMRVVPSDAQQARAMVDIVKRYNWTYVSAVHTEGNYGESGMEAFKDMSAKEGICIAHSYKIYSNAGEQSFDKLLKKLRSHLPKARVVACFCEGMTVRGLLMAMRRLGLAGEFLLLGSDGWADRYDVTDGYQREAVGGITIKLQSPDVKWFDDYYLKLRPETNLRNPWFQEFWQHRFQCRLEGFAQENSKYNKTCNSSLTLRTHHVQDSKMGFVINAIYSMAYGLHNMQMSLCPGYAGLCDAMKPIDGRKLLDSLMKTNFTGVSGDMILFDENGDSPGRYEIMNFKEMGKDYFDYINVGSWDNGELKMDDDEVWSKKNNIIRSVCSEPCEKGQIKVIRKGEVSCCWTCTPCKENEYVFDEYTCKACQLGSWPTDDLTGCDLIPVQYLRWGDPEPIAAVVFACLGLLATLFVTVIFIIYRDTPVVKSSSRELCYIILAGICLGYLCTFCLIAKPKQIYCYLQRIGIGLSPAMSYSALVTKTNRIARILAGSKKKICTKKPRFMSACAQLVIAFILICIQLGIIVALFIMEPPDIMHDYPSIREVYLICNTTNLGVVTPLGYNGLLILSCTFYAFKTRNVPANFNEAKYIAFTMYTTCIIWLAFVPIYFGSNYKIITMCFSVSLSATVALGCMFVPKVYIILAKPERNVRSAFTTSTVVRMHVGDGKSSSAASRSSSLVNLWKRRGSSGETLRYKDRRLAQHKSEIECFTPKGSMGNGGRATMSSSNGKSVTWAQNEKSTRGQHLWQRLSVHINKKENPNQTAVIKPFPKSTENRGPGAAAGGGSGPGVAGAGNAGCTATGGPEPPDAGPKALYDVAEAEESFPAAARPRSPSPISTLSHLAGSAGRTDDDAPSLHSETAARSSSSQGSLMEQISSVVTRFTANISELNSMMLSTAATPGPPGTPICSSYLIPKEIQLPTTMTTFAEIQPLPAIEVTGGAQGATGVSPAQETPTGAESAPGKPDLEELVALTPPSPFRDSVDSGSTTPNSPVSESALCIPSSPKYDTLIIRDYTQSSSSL
Put plainly: mGluR5 receptor binding test, rat cerebro-cortical membrane preparation, [3H]-M-MPEP. As to conditions: affinity for rat mGluR5 receptors; [3H]-M-MPEP (2 nM) radioligand. In short, it runs like this: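 Radioligand binding used rat cerebro-cortical membranes with 2 nM [3H]-M-MPEP. Nonspecific binding was defined with 10 μM M-MPEP. The method follows a modification of a published procedure.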
What is called Ki is a measure of affinity in units of concentration, obtained from inhibition or displacement. As for `CC1CCN(c2c(S(=O)(=O)c3cccc(Cl)c3)cnc3ccc(F)cc23)CC1` [Compound 148], the inhibition constant Ki was below 200 nM.
The figure for `COc1ccc2ncc(S(=O)(=O)c3cccc(Cl)c3)c(N3CCOCC3)c2c1` [Compound 274] is above 500 nM; for `Cc1ccc2ncc(S(=O)(=O)c3ccccc3)c(N3CCN(Cc4ccccc4)CC3)c2c1` [Compound 90] it is above 500 nM.
In turn, `O=S(=O)(c1cc(F)cc(F)c1)c1cnc2cc(Cl)ccc2c1N1CCOCC1` [Compound 319] had a Ki of 200 to 500 nM.
The same measure for `O=S(=O)(c1cc(F)cc(F)c1)c1cnc2ccc(Cl)cc2c1N1CCOCC1` [Compound 294]: above 500 nM.
`COc1cccc(S(=O)(=O)c2cnc3ccc(Cl)cc3c2N2CCOCC2)c1` [Compound 296]: the Ki is above 500 nM.
The same measure for `O=S(=O)(c1cc(Cl)cc(Cl)c1)c1cnc2ccc(F)cc2c1N1CCOCC1` [Compound 280]: above 500 nM; for `COc1ccc2ncc(S(=O)(=O)c3ccc(Cl)cc3)c(NCc3ccccc3)c2c1` [Compound 78]: above 500 nM; for `O=S(=O)(c1ccccc1)c1cnc2cc(F)ccc2c1N1CCOCC1` [Compound 304]: above 500 nM.
The same measure for `O=S(=O)(c1ccccc1)c1cnc2ccc(F)cc2c1N1CCCCCC1` [Compound 118]: above 500 nM.
The same measure for `O=S(=O)(c1cc(Cl)cc(Cl)c1)c1cnc2c(F)cccc2c1N1CCOCC1` [Compound 335]: 200 to 500 nM; for `COc1ccc2ncc(S(=O)(=O)c3ccc(Cl)cc3)c(N3CCOCC3)c2c1` [Compound 270]: below 200 nM.
Compound `COc1ccc(S(=O)(=O)c2cnc3ccc(F)cc3c2N2CCC(C)CC2)cc1Cl` [Compound 147] displayed a Ki below 200 nM.
The figure for `N#Cc1cccc(S(=O)(=O)c2cnc3cc(F)ccc3c2N2CCOCC2)c1` [Compound 311] is 200 to 500 nM.
The same measure for `COc1ccc(S(=O)(=O)c2cnc3ccc(Cl)cc3c2N2CCC(C)CC2)cc1OC` [Compound 225]: 200 to 500 nM; for `CC1CCN(c2c(S(=O)(=O)c3cccc(F)c3)cnc3ccc(F)cc23)CC1` [Compound 144]: 200 to 500 nM.
The compound `Cc1ccc(S(=O)(=O)c2cnc3ccccc3c2N2CCCC(C)C2)cc1` (centres unmarked) [Compound 4, 3-(4-Methyl-benzenesulfonyl)-4-(3-methyl-piperidin-1-yl)-quinoline] came in with a Ki below 200 nM.
The figure for `CC1CCN(c2c(S(=O)(=O)c3cc(Cl)cc(Cl)c3)cnc3ccc(F)cc23)CC1` [Compound 138] is 200 to 500 nM.
The same measure for `Cc1ccc2ncc(S(=O)(=O)c3ccc(C#N)cc3)c(N3CCOCC3)c2c1` [Compound 265]: above 500 nM.
The same measure for `Cc1ccc(S(=O)(=O)c2cnc3c(F)cccc3c2N2CCOCC2)cc1F` [Compound 341]: 200 to 500 nM; for `O=S(=O)(c1ccc(N2CCCCC2)cc1)c1cnc2ccc(Cl)cc2c1N1CCCCC1` [Compound 8]: above 500 nM; for `Cc1ccc(S(=O)(=O)c2cnc3ccc(C)cc3c2N2CCN(Cc3ccccc3)CC2)cc1` [Compound 65]: above 500 nM.
Regarding `O=S(=O)(c1ccc(F)c(F)c1)c1cnc2c(F)cccc2c1N1CCOCC1` [Compound 343], the Ki lay in the range of 200 to 500 nM.
Take `O=S(=O)(c1ccccc1)c1cnc2ccccc2c1N1CCC2(CC1)OCCO2` [Compound 60]: the Ki was above 500 nM.
The figure for `Cc1ccc2ncc(S(=O)(=O)c3ccc(Cl)cc3)c(N3CCOCC3)c2c1` [Compound 39] is above 500 nM.
The figure for `CC1CCN(c2c(S(=O)(=O)c3ccc(Cl)cc3)cnc3cc(F)ccc23)CC1` [Compound 174] is below 200 nM.
The same measure for `CC1CCN(c2c(S(=O)(=O)c3cc(F)cc(F)c3)cnc3ccc(Cl)cc23)CC1` [Compound 209]: below 200 nM; for `COc1ccc2ncc(S(=O)(=O)c3cc(F)cc(F)c3)c(N3CCOCC3)c2c1` [Compound 272]: above 500 nM.
Turning to `CC1CCN(c2c(S(=O)(=O)c3ccccc3)cnc3cc(F)ccc23)CC1` [Compound 173], the Ki was below 200 nM.
The same measure for `CCc1ccc2ncc(S(=O)(=O)c3ccc(Cl)cc3)c(N3CCOCC3)c2c1` [Compound 105]: above 500 nM; for `Cc1ccc(S(=O)(=O)c2cnc3ccc(C)cc3c2NCc2ccc(F)cc2)cc1` [Compound 29]: above 500 nM.
The figure for `CCOC(=O)C1CCCN(c2c(S(=O)(=O)c3ccccc3)cnc3ccc(CC)cc23)C1` (centres unmarked) [Compound 57] is above 500 nM.
The figure for `CC1CCN(c2c(S(=O)(=O)c3ccc(Cl)c(Cl)c3)cnc3cc(F)ccc23)CC1` [Compound 176] is below 200 nM; for `CC1CCN(c2c(S(=O)(=O)c3ccc(F)cc3)cnc3ccc(C#N)cc23)CC1` [Compound 252] it is 200 to 500 nM; for `Cc1ccc2ncc(S(=O)(=O)c3ccccc3)c(N3CCC(C)CC3)c2c1` [Compound 49] it is above 500 nM.
`Cc1cc(C)cc(S(=O)(=O)c2cnc3cc(Cl)ccc3c2N2CCOCC2)c1` [Compound 333] returned a Ki above 500 nM.
The same measure for `CC1CCN(c2c(S(=O)(=O)c3ccc(C#N)cc3)cnc3c(F)cccc23)CC1` [Compound 234]: below 200 nM; for `O=S(=O)(c1cc(F)cc(F)c1)c1cnc2cc(Cl)ccc2c1N1CCC(CO)CC1` [Compound 351]: 200 to 500 nM; for `Cc1ccc(S(=O)(=O)c2cnc3ccc(Cl)cc3c2N2CCOCC2)cc1` [Compound 292]: below 200 nM.
The same measure for `Cc1ccc(S(=O)(=O)c2cnc3ccc(C)cc3c2N2CCC(C)CC2)cc1` [Compound 46]: below 200 nM; for `Cc1ccc(S(=O)(=O)c2cnc3ccc(C)cc3c2NCc2ccccc2)cc1` [Compound 28]: above 500 nM.
In turn, `Cc1ccc2ncc(S(=O)(=O)c3ccc(C)c(F)c3)c(N3CCC(C)CC3)c2c1` [Compound 165] gave a Ki below 200 nM.
`Cc1ccc2ncc(S(=O)(=O)c3ccc(C#N)cc3)c(N3CCC(C)CC3)c2c1` [Compound 166] yielded a Ki of 200 to 500 nM.
The figure for `COc1ccc(Nc2c(S(=O)(=O)c3ccc(C)cc3)cnc3ccccc23)cc1OC` [Compound 24] is above 500 nM; for `CCOC(=O)C1CCN(c2c(S(=O)(=O)c3ccc(C)cc3)cnc3ccc(OCC)cc23)CC1` [Compound 98] it is above 500 nM.
Compound `Cc1ccc2ncc(S(=O)(=O)c3ccc(C)c(F)c3)c(N3CCOCC3)c2c1` [Compound 267] showed a Ki above 500 nM.
`CCOc1ccc2ncc(S(=O)(=O)c3ccc(C)cc3)c(N3CCN(c4ccccc4F)CC3)c2c1` [Compound 117] came in with a Ki above 500 nM.
The same measure for `CCOC(=O)N1CCN(c2c(S(=O)(=O)c3ccc(Cl)cc3)cnc3ccc(C)cc23)CC1` [Compound 131]: 200 to 500 nM; for `CCc1ccc2ncc(S(=O)(=O)c3ccc(C)cc3)c(N(CC)CC)c2c1` [Compound 83]: above 500 nM; for `CCN(CC)c1c(S(=O)(=O)c2ccc(C)cc2)cnc2ccccc12` [Compound 76]: 200 to 500 nM.
The same measure for `CC1CCN(c2c(S(=O)(=O)c3ccc(F)c(Cl)c3)cnc3cc(Cl)ccc23)CC1` [Compound 207]: below 200 nM.
The same measure for `O=S(=O)(c1ccccc1)c1cnc2cc3c(cc2c1N1CCCC1)OCCO3` [Compound 82]: above 500 nM; for `O=S(=O)(c1ccc(Cl)cc1)c1cnc2ccccc2c1N1CCCCCC1` [Compound 34]: 200 to 500 nM.
Turning to `O=S(=O)(c1ccccc1)c1cnc2cc3c(cc2c1N1CCCCCC1)OCCO3` [Compound 95], the Ki is above 500 nM.
Regarding `O=S(=O)(c1ccc(Cl)cc1)c1cnc2ccc(F)cc2c1N1CCOCC1` [Compound 120], the Ki is above 500 nM.
The same measure for `O=S(=O)(c1ccc(Cl)cc1)c1cnc2ccccc2c1N1CCN(Cc2ccccc2)CC1` [Compound 79]: 200 to 500 nM.
The figure for `O=S(=O)(c1ccc(Cl)cc1)c1cnc2c(F)cccc2c1N1CCOCC1` [Compound 339] is 200 to 500 nM.
The figure for `Cc1ccc(S(=O)(=O)c2cnc3c(F)cccc3c2N2CCC(C)CC2)cc1F` [Compound 233] is below 200 nM.
The compound `Cc1ccc(S(=O)(=O)c2cnc3ccc(F)cc3c2N2CCCCCC2)cc1` [Compound 33] had a Ki above 500 nM.
`Cc1ccc(S(=O)(=O)c2cnc3ccc(F)cc3c2N2CCC(C)CC2)cc1` [Compound 14] displayed a Ki of 200 to 500 nM.
With `Cc1ccc2ncc(S(=O)(=O)c3ccc(F)cc3)c(N3CCOCC3)c2c1` [Compound 257], the Ki is above 500 nM.
The figure for `CC1CCN(c2c(S(=O)(=O)c3ccc(C#N)cc3)cnc3cc(F)ccc23)CC1` [Compound 180] is below 200 nM.
The figure for `COc1cccc(S(=O)(=O)c2cnc3ccc(OC)cc3c2N2CCC(C)CC2)c1` [Compound 244] is above 500 nM; for `O=S(=O)(c1ccc(Cl)cc1)c1cnc2cc(F)ccc2c1N1CCOCC1` [Compound 305] it is above 500 nM.
The figure for `COc1ccc(S(=O)(=O)c2cnc3cc(Cl)ccc3c2N2CCOCC2)cc1` [Compound 322] is above 500 nM; for `CCc1ccc2ncc(S(=O)(=O)c3ccc(C)cc3)c(N3CCCCC3)c2c1` [Compound 96] it is above 500 nM; for `Cc1ccc2ncc(S(=O)(=O)c3cc(Cl)cc(Cl)c3)c(N3CCOCC3)c2c1` [Compound 264] it is 200 to 500 nM.
Take `CCc1ccc2ncc(S(=O)(=O)c3ccc(OC)cc3)c(N3CCC(C)CC3)c2c1` [Compound 51]: the Ki is below 200 nM.
The same measure for `COc1ccc2ncc(S(=O)(=O)c3ccccc3)c(N3CCOCC3)c2c1` [Compound 269]: 200 to 500 nM; for `Cc1ccc(S(=O)(=O)c2cnc3ccc(F)cc3c2N2CCC(C)CC2)cc1C` [Compound 146]: below 200 nM.
For `COc1cccc(Nc2c(S(=O)(=O)c3ccc(C)cc3)cnc3ccccc23)c1` [Compound 113], the Ki is above 500 nM.
The figure for `CCN(CC)c1c(S(=O)(=O)c2ccc(C)cc2)cnc2ccc(OC)cc12` [Compound 110] is above 500 nM.
`Cc1ccc(S(=O)(=O)c2cnc3cc(F)ccc3c2N2CCC(C)CC2)cc1Cl` [Compound 181] yielded an inhibition constant (Ki) below 200 nM.
The figure for `Cc1ccc(S(=O)(=O)c2cnc3ccccc3c2N2CCCCC2)cc1` [Compound 6] is below 200 nM.
